Reference: US11020360B2, “Methods, compounds, compositions and vehicles for delivering 3-amino-1-propanesulfonic acid” (Bellus Health, Inc., priority 2006, dated 2021)
Structures can show the parent of a compound that is named as a salt.

Columns and labels:
[1] = Mouse whole blood stability; format: in vitro ADME; details: 37° C.
Protocol: (§1) Test compounds were incubated for a total of 240 minutes at 37° C. in whole mouse and whole human blood. The compounds were added at time-point 0 and sample aliquots were withdrawn at each time point (usually 0, 60 and 240 minutes). The samples were extracted using protein precipitation. Analysis of extracted samples was achieved using HPLC with MS detection. Several types of HPLC columns and mobile phase were used depending of the polarity of the compound. The compound stability was determined by the % of compound remaining at 240 minutes (peak response of compound at 240 minutes/peak response at 0 minutes×100).

[2] = Human whole blood stability; format: in vitro ADME; details: 37° C.
Protocol: as §1

| Structure (SMILES) | Blood stability (% of compound remaining after 240 min.) Mouse Blood [1] | Blood stability (% of compound remaining after 240 min.) Human Blood [2] |
| --- | --- | --- |
| CSCC[C@@H](N)C(=O)NCCCS(=O)(=O)O [Compound A12] | +++ (+++: >75%) | +++ (+++: >75%) |
| N[C@@H](CCC(=O)OCc1ccccc1)C(=O)NCCCS(=O)(=O)O [Compound A19] | + (+: <30%) | + (+: <30%) |
| CSCC[C@H](N)C(=O)NCCCS(=O)(=O)O [Compound A6] | + (+: <30%) | ++ (++: 30-75%) |
| O=C(O)CCC(=O)NCCCS(=O)(=O)O [Compound B5] | +++ (+++: >75%) | +++ (+++: >75%) |
| N[C@H](C(=O)NCCCS(=O)(=O)O)c1ccccc1 [Compound A15] | + (+: <30%) | ++ (++: 30-75%) |
| CC(C)(CC(=O)O)CC(=O)NCCCS(=O)(=O)O [Compound B3, 3,3-dimethyl-5-oxo-5-[(3-sulfopropyl)amino]pentanoic Acid Sodium Salt] | ++ (++: 30-75%) | +++ (+++: >75%) |
| CC(C)C[C@H](N)C(=O)NCCCS(=O)(=O)O [Compound A5] | + (+: <30%) | + (+: <30%) |
| CC(C)(N)C(=O)NCCCS(=O)(=O)O [Compound A14] | +++ (+++: >75%) | +++ (+++: >75%) |
| O=C(NCCCS(=O)(=O)O)[C@@H]1CCCN1 [Compound A3] | ++ (++: 30-75%) |  |
| C[C@H](N)C(=O)NCCCS(=O)(=O)O [Compound A8] | ++ (++: 30-75%) | + (+: <30%) |
| CC(C)(CCC(=O)NCCCS(=O)(=O)O)C(=O)O [Compound B4] | +++ (+++: >75%) | +++ (+++: >75%) |
| C[C@@H](N)C(=O)NCCCS(=O)(=O)O [Compound A9] | +++ (+++: >75%) | +++ (+++: >75%) |
| N[C@@H](Cc1ccccc1)C(=O)NCCCS(=O)(=O)O [Compound A1] | + (+: <30%) |  |
| CCC(C)[C@H](N)C(=O)NCCCS(=O)(=O)O (stereo partly drawn) [Compound A11] | +++ (+++: >75%) | +++ (+++: >75%) |
| N[C@@H](Cc1c[nH]cn1)C(=O)NCCCS(=O)(=O)O [Compound A13] | +++ (+++: >75%) | +++ (+++: >75%) |
| NCC(=O)NCCCS(=O)(=O)O [Compound A10] | ++ (++: 30-75%) | ++ (++: 30-75%) |
| N[C@@H](Cc1c[nH]c2ccccc12)C(=O)NCCCS(=O)(=O)O [Compound A16] | ++ (++: 30-75%) | +++ (+++: >75%) |

Further lines, results first:

| Blood stability (% of compound remaining after 240 min.) Mouse Blood [1] | Blood stability (% of compound remaining after 240 min.) Human Blood [2] | Structure (SMILES) |
| --- | --- | --- |
| +++ (+++: >75%) | +++ (+++: >75%) | CC(OC(=O)CCCC(=O)O)OC(=O)NCCCS(=O)(=O)O (stereo not drawn) [Compound C11] |
| + (+: <30%) | ++ (++: 30-75%) | CC(OC(=O)NCCCS(=O)(=O)O)OC(=O)c1ccccc1 (stereo not drawn) [Compound C16, 4-aza-7-methyl-6,8,-dioxa-5,9,-dioxo-9-phenyl-1-nonanesulfonic Acid Sodium Salt] |
| + (+: <30%) | + (+: <30%) | CC(OC(=O)CCCCC(=O)OCc1ccccc1)OC(=O)NCCCS(=O)(=O)O (stereo not drawn) [Compound C10] |
| ++ (++: 30-75%) | +++ (+++: >75%) | CC(OC(=O)NCCCS(=O)(=O)O)OC(=O)C(C)(C)c1ccccc1 (stereo not drawn) [Compound C14] |
| + (+: <30%) | +++ (+++: >75%) | CC(OC(=O)CC(C)(C)CC(=O)OCc1ccccc1)OC(=O)NCCCS(=O)(=O)O (stereo not drawn) [Compound C7] |
| + (+: <30%) |  | CC(OC(=O)NCCCS(=O)(=O)O)OC(=O)C(C)C (stereo not drawn) [Compound C18] |
| + (+: <30%) | ++ (++: 30-75%) | CC(OC(=O)NCCCS(=O)(=O)O)OC(=O)C(C)(C)C (stereo not drawn) [Compound C15] |
| ++ (++: 30-75%) | ++ (++: 30-75%) | CC(OC(=O)CCCCC(=O)O)OC(=O)NCCCS(=O)(=O)O (stereo not drawn) [Compound C9] |
| + (+: <30%) | + (+: <30%) | CC(=O)Oc1ccc(COC(=O)NCCCS(=O)(=O)O)cc1 [Compound C1, 3-(p-acetyloxybenzyloxycarbonyl)amino-1-propanesulfonic Acid Sodium Salt] |
| + (+: <30%) | + (+: <30%) | CC(OC(=O)CCC(=O)OCc1ccccc1)OC(=O)NCCCS(=O)(=O)O (stereo not drawn) [Compound C5] |
| + (+: <30%) |  | CC(=O)OC(C)OC(=O)NCCCS(=O)(=O)O (stereo not drawn) [Compound C19, 4-aza-7-methyl-6,8,-dioxa-5,9,-dioxo-1-decanesulfonic acid Sodium Salt] |
| ++ (++: 30-75%) | +++ (+++: >75%) | CC(OC(=O)CCC(=O)O)OC(=O)NCCCS(=O)(=O)O (stereo not drawn) [Compound C4] |
| + (+: <30%) | ++ (++: 30-75%) | CC(=O)OC(OC(=O)NCCCS(=O)(=O)O)C(C)C (stereo not drawn) [Compound C22] |
| + (+: <30%) | ++ (++: 30-75%) | CC(C)C(OC(=O)NCCCS(=O)(=O)O)OC(=O)C(C)(C)C (stereo not drawn) [Compound C23] |
| + (+: <30%) | ++ (++: 30-75%) | CC(C)(C)C(=O)OC(OC(=O)NCCCS(=O)(=O)O)C1CCCCC1 (stereo not drawn) [Compound C20] |
| +++ (+++: >75%) | +++ (+++: >75%) | CC(OC(=O)CC(C)(C)CC(=O)O)OC(=O)NCCCS(=O)(=O)O (stereo not drawn) [Compound C8] |
| + (+: <30%) | ++ (++: 30-75%) | CC(=O)OC(OC(=O)NCCCS(=O)(=O)O)C(C)(C)C (stereo not drawn) [Compound C24] |
| + (+: <30%) | ++ (++: 30-75%) | CC(OC(=O)CCCC(=O)OCc1ccccc1)OC(=O)NCCCS(=O)(=O)O (stereo not drawn) [Compound C12] |
| + (+: <30%) | + (+: <30%) | CC(OC(=O)NCCCS(=O)(=O)O)OC(=O)C(C)(C)c1cccs1 (stereo not drawn) [Compound C13] |
| + (+: <30%) |  | CC(OC(=O)NCCCS(=O)(=O)O)OC(=O)C1CCCCC1 (stereo not drawn) [Compound C17] |
